Literature values as cited in patent US20190177430A1, “Methods of Treating Cancers With Chemotherapy With Reduced Toxicity” (The Wistar Institute of Anatomy and Biology, priority 2016, published 2019).

Settings: dosages of 250 mg/m^2

Doxorubicin-induced cardiac dysfunction, share of treated patients: 9%
Structure (SMILES): COc1cccc2c1C(=O)c1c(O)c3c(c(O)c1C2=O)C[C@@](O)(C(=O)CO)C[C@@H]3O[C@H]1C[C@H](N)[C@H](O)[C@H](C)O1 [Doxorubicin, (7S,9S)-7-[(2R,4S,5S,6S)-4-amino-5-hydroxy-6-methyloxan-2-yl]oxy-6,9,11-trihydroxy-9-(2-hydroxyacetyl)-4-methoxy-8,10-dihydro-7H-tetracene-5,12-dione]
